The values that follow come from patent US12371454B2, “Cyclic peptide compound having Kras inhibitory action” (priority 2019, dated 2025).

Starred links: 1 amine or outer side, 2 acyl side, 3 side chain; linkers in the order of their positions; H or OH if unused. Positions of bridges follow the written chain, without caps; N, C: chain ends. Non-standard residues stand in square brackets, D forms with d. Residues, ends and D or L forms follow the SMILES beside them. *: point of attachment. hPhe(3,5-F2-4-CF3) = N[C@@H](CCc1cc(F)c(C(F)(F)F)c(F)c1)C(=O)O; hPhe(3-Cl-4-CF3) = N[C@@H](CCc1ccc(C(F)(F)F)c(Cl)c1)C(=O)O; hPhe(3-F,4-CF3) = N[C@@H](CCc1ccc(C(F)(F)F)c(F)c1)C(=O)O; hPhe(3-OMe-4-CF3) = COc1cc(CC[C@H](N)C(=O)O)ccc1C(F)(F)F; NMePhe(4-CF3) = CN[C@@H](Cc1ccc(C(F)(F)F)cc1)C(=O)O; hPhe(4-CF3) = N[C@@H](CCc1ccc(C(F)(F)F)cc1)C(=O)O; 3Oxa8azabicyclo(3.2.1)octane = C1CC2COCC1N2*; NMeAbu(4,4,4-F3) = CN[C@@H](CC(F)(F)F)C(=O)O; NMePhe(4-Cl) = CN[C@@H](Cc1ccc(Cl)cc1)C(=O)O; NMePhe(4-Me) = CN[C@@H](Cc1ccc(C)cc1)C(=O)O; NMePhe(2-Cl) = CN[C@@H](Cc1ccccc1Cl)C(=O)O; NMePhe(4-F) = CN[C@@H](Cc1ccc(F)cc1)C(=O)O; X33 = Cc1ccc(CC[C@H](N[*:1])C(=O)[*:2])cc1; NMedβ3hAla = C[C@H](CC(=O)[*:2])N(C)[*:1]; NMeGly(cPent) = CN[C@H](C(=O)O)C1CCCC1; Pro(4,4-F2) = O=C(O)[C@@H]1CC(F)(F)CN1; NMeCha = CN[C@@H](CC1CCCCC1)C(=O)O; NMeChg = CN[C@H](C(=O)O)C1CCCCC1; NMeF = CN[C@@H](Cc1ccccc1)C(=O)O; NMeI = CC[C@H](C)[C@H](NC)C(=O)O; NMeD = CN[C@@H](CC(=O)O)C(=O)O; NMeL = CN[C@@H](CC(C)C)C(=O)O; NMeV = CN[C@H](C(=O)O)C(C)C; d(β3hA) = C[C@@H](N)CC(=O)O; NMeS = CN[C@@H](CO)C(=O)O; Morpholide = C1CN(*)CCO1; NMeA = CN[C@@H](C)C(=O)O; Piperidide = C1CCN(*)CC1; Pyrrolidide = C1CCN(*)C1; dNMeA = CN[C@H](C)C(=O)O; Ac5c = NC1(C(=O)O)CCCC1; Aze = O=C(O)[C@@H]1CCN1; Ac4c = NC1(C(=O)O)CCC1; Ac3c = NC1(C(=O)O)CC1; Sar = CNCC(=O)O; Propyl = CCC*

The target in this experiment is T1, Kras and SOS1 (biotin-tagged human Kras loaded with GDP, His-tagged human SOS1) (Homo sapiens, UniProt P01116, G12D).
T1 construct: made in house; host or cells: E. coli (stated for Kras only)
T1 sequence (P01116 1-188 isoform P01116-2 G12D): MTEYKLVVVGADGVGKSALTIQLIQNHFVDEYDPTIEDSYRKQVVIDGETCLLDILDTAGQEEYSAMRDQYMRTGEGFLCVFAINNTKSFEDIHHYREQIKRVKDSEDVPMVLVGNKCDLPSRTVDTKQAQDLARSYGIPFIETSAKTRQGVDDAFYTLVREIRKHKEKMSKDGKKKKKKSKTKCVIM
The experiment can be described thus: Protein-protein interaction inhibition between Kras and SOS1 (KrasGl2D-SOS PPI) using AlphaScreen. It counts as binding. Conditions: AlphaScreen; biotin-tagged human Kras loaded with GDP, His-tagged human SOS1; read-out: KRAS G12D-SOS PPI IC50. In outline:
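Energy transfer from nickel-chelate donor beads bound to His-SOS1 to streptavidin acceptor beads bound to biotin-Kras, expressed in E. coli and loaded with GDP after purification, was monitored. Donors were excited at 680 nm; singlet oxygen reaching acceptors gave emission read at 520-620 nm.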
As to `CC[C@H](C)[C@@H]1NC(=O)[C@H](CC(C)C)N(C)C(=O)C[C@@H](C(=O)N(C)C)N(C)C(=O)[C@H]([C@@H](C)CC)N(C)C(=O)C2(CCCC2)NC(=O)[C@@H](C)NC(=O)[C@H](CCc2ccc(C(F)(F)F)c(Cl)c2)NC(=O)CN(C)C(=O)[C@H](Cc2ccc(C)cc2)N(C)C(=O)[C@@H]2CCN2C(=O)[C@H](C)N(C)C1=O` [Compound 67] ([NMeL]I[NMeA][Aze][NMePhe(4-Me)][Sar][hPhe(3-Cl-4-CF3)][dA][Ac5c][NMeI][NMeD]-NMe2; lactam N-11), the IC50 came out at 8.3 nM. With `CC[C@H](C)[C@@H]1NC(=O)[C@H](CC(C)C)N(C)C(=O)C[C@@H](C(=O)N2CCCC2)N(C)C(=O)[C@H]([C@@H](C)CC)N(C)C(=O)C2(CCCC2)NC(=O)[C@@H]2CCCN2C(=O)[C@H](CCc2cc(F)c(C(F)(F)F)c(F)c2)NC(=O)CN(C)C(=O)[C@H](Cc2ccc(C(F)(F)F)cc2)N(C)C(=O)[C@@H]2CCN2C(=O)[C@H](C)N(C)C1=O` [Compound 1343] ([NMeL]I[NMeA][Aze][NMePhe(4-CF3)][Sar][hPhe(3,5-F2-4-CF3)]P[Ac5c][NMeI][NMeD]-Pyrrolidide; lactam N-11) the figure was 0.61 nM. The value for `CC[C@H](C)[C@@H]1NC(=O)[C@H](C)N(C)C(=O)C[C@@H](C(=O)N2CCCC2)NC(=O)[C@H](CC(C)C)N(C)C(=O)[C@H](Cc2ccccc2)N(C)C(=O)[C@H](CC(C)C)NC(=O)[C@H](CCc2ccc(C)cc2)NC(=O)CN(C)C(=O)[C@H](Cc2ccc(Cl)cc2)N(C)C(=O)CN(C)C(=O)CN(C)C1=O` [Compound 398] ([NMeA]I[Sar][Sar][NMePhe(4-Cl)][Sar][X33]L[NMeF][NMeL]D-Pyrrolidide; lactam N-11) was 120 nM. In the case of `CC[C@H](C)[C@@H]1NC(=O)[C@H](CC(C)C)N(C)C(=O)C[C@@H](C(=O)N2CCCCC2)N(C)C(=O)[C@H](C(C)C)N(C)C(=O)C2(CC2)NC(=O)[C@@H]2CCCN2C(=O)[C@H](CCc2ccc(C(F)(F)F)c(Cl)c2)NC(=O)CN(C)C(=O)[C@H](CC2CCCCC2)N(C)C(=O)CN(C)C(=O)CN(C)C1=O` [Compound 468] ([NMeL]I[Sar][Sar][NMeCha][Sar][hPhe(3-Cl-4-CF3)]P[Ac3c][NMeV][NMeD]-Piperidide; lactam N-11), the IC50 is 2.5 nM. With `CC[C@H](C)[C@@H]1NC(=O)[C@H](CC(F)(F)F)N(C)C(=O)C[C@@H](C(=O)N2CCCC2)N(C)C(=O)[C@H](C2CCCCC2)N(C)C(=O)C2(CCCC2)NC(=O)[C@@H]2CC(F)(F)CN2C(=O)[C@H](CCc2cc(F)c(C(F)(F)F)c(F)c2)NC(=O)CN(C)C(=O)[C@H](Cc2ccc(C)cc2)N(C)C(=O)CN(C)C(=O)CN(C)C1=O` [Compound 1317] ([NMeAbu(4,4,4-F3)]I[Sar][Sar][NMePhe(4-Me)][Sar][hPhe(3,5-F2-4-CF3)][Pro(4,4-F2)][Ac5c][NMeChg][NMeD]-Pyrrolidide; lactam N-11) the figure was 0.57 nM. With `CC[C@H](C)[C@@H]1NC(=O)[C@H](C)N(C)C(=O)C[C@@H](C(=O)N2CCCC2)NC(=O)[C@H](CC(C)C)N(C)C(=O)[C@H](Cc2ccccc2)N(C)C(=O)[C@H](CC(C)C)NC(=O)[C@H](CCc2ccc(C(F)(F)F)cc2)NC(=O)CN(C)C(=O)[C@H](Cc2ccc(Cl)cc2)N(C)C(=O)CN(C)C(=O)CNC1=O` [Compound 808] ([NMeA]IG[Sar][NMePhe(4-Cl)][Sar][hPhe(4-CF3)]L[NMeF][NMeL]D-Pyrrolidide; lactam N-11), the IC50 is 99 nM.

As to `CC[C@H](C)[C@@H]1NC(=O)[C@H](C)N(C)C(=O)C[C@@H](C)NC(=O)[C@H](C2CCCC2)N(C)C(=O)C2(CCCC2)NC(=O)[C@@H]2CCCN2C(=O)[C@H](CCc2ccc(C(F)(F)F)c(Cl)c2)NC(=O)[C@@H](C)N(C)C(=O)[C@H](Cc2ccc(Cl)cc2)N(C)C(=O)CN(C)C(=O)CN(C)C1=O` [Compound 1065] (cyclo([Ac5c][NMeGly(cPent)][d(β3hA)][NMeA]I[Sar][Sar][NMePhe(4-Cl)][dNMeA][hPhe(3-Cl-4-CF3)]P)), the IC50 amounted to 70 nM. On to `CC[C@H](C)[C@@H]1NC(=O)[C@H](C)N(C)C(=O)C[C@@H](C)NC(=O)[C@H](CC(C)C)N(C)C(=O)[C@H](CC2CCCCC2)N(C)C(=O)[C@@H]2CCCN2C(=O)[C@H](CCc2ccc(C(F)(F)F)cc2)NC(=O)CN(C)C(=O)[C@H](Cc2ccc(Cl)cc2)N(C)C(=O)CN(C)C(=O)CN(C)C1=O` [Compound 383] (cyclo(I[Sar][Sar][NMePhe(4-Cl)][Sar][hPhe(4-CF3)]P[NMeCha][NMeL][d(β3hA)][NMeA])), for which the IC50 turned out to be 260 nM. The value for `CC[C@H](C)[C@@H]1NC(=O)[C@H](C)N(C)C(=O)C[C@@H](C(=O)N2CCCCC2)N(C)C(=O)[C@H](C(C)C)N(C)C(=O)C2(CCCC2)NC(=O)[C@@H]2CCCN2C(=O)[C@H](CCc2ccc(C(F)(F)F)c(Cl)c2)NC(=O)[C@@H](C)N(C)C(=O)[C@H](Cc2ccc(F)cc2)N(C)C(=O)[C@@H]2CCCN2C(=O)CN(C)C1=O` [Compound 1853] ([NMeA]I[Sar]P[NMePhe(4-F)][dNMeA][hPhe(3-Cl-4-CF3)]P[Ac5c][NMeV][NMeD]-Piperidide; lactam N-11) was 8.9 nM. With `CC[C@H](C)[C@@H]1NC(=O)[C@H](CC(C)C)N(C)C(=O)C[C@@H](C)N(C)C(=O)[C@H](C2CCCCC2)N(C)C(=O)C2(CCC2)NC(=O)[C@@H]2CC(F)(F)CN2C(=O)[C@H](CCc2ccc(C(F)(F)F)c(Cl)c2)NC(=O)CN(C)C(=O)[C@H](Cc2ccc(C(F)(F)F)cc2)N(C)C(=O)CN(C)C(=O)CN(C)C1=O` [Compound 750] (cyclo([Ac4c][NMeChg][NMedβ3hAla][NMeL]I[Sar][Sar][NMePhe(4-CF3)][Sar][hPhe(3-Cl-4-CF3)][Pro(4,4-F2)])) the figure was 28 nM; with `CC[C@H](C)[C@@H]1NC(=O)[C@H](C)N(C)C(=O)C[C@@H](C)NC(=O)[C@H](C2CCCC2)N(C)C(=O)C2(CCCC2)NC(=O)[C@@H]2CCCN2C(=O)[C@H](CCc2ccc(C(F)(F)F)c(Cl)c2)NC(=O)CN(C)C(=O)[C@H](CC(C)C)N(C)C(=O)[C@@H]2CCCN2C(=O)CN(C)C1=O` [Compound 429] (cyclo([Ac5c][NMeGly(cPent)][d(β3hA)][NMeA]I[Sar]P[NMeL][Sar][hPhe(3-Cl-4-CF3)]P)), 99 nM; with `CCCOC[C@H]1C(=O)N(C)CC(=O)N[C@@H](CCc2ccc(C(F)(F)F)c(F)c2)C(=O)N2CCC[C@H]2C(=O)NC2(CCCC2)C(=O)N(C)[C@@H](C2CCCC2)C(=O)N(C)[C@H](C(=O)N2CCOCC2)CC(=O)N(C)[C@@H](CC(C)C)C(=O)N[C@@H]([C@@H](C)CC)C(=O)N(C)[C@@H](C)C(=O)N2CC[C@H]2C(=O)N1C` [Compound 9, (5S,8S,11S,15S,18S,23aS,29S,35S,37aS)-8-((S)-sec-butyl)-18-cyclopentyl-29-(3-fluoro-4-(trifluoromethyl)phenethyl)-11-isobutyl-5,6,12,16,19,33,36-heptamethyl-15-(morpholine-4-carbonyl)-35-(propoxymethyl)docosahydro-2H,4H-spiro[azeto[2,1-u]pyrrolo[2,1-i][1,4,7,10,13,16,19,22,25,28,31]undecaazacyclotetratriacontine-21,1′-cyclopentan]-4,7,10,13,17,20,23,28,31,34,37(14H,22H)-undecaone] ([NMeL]I[NMeA][Aze][NMeS](Propyl)[Sar][hPhe(3-F,4-CF3)]P[Ac5c][NMeGly(cPent)][NMeD]-Morpholide; lactam N-11), 1.5 nM. With `CC[C@H](C)[C@@H]1NC(=O)[C@H](CC(C)C)N(C)C(=O)C[C@@H](C(=O)N2CCCCC2)N(C)C(=O)[C@H](C2CCCC2)N(C)C(=O)C2(CCCC2)NC(=O)[C@@H]2CCCN2C(=O)[C@H](CCc2ccc(C(F)(F)F)c(OC)c2)NC(=O)CN(C)C(=O)[C@H](CC2CCCCC2)N(C)C(=O)[C@@H]2CCN2C(=O)[C@H](C)N(C)C1=O` [Compound 2080] ([NMeL]I[NMeA][Aze][NMeCha][Sar][hPhe(3-OMe-4-CF3)]P[Ac5c][NMeGly(cPent)][NMeD]-Piperidide; lactam N-11) the figure was 0.33 nM; with `CC[C@H](C)[C@@H]1NC(=O)[C@H](C)N(C)C(=O)C[C@@H](C(=O)N2CCCC2)N(C)C(=O)[C@H](C(C)C)N(C)C(=O)[C@H](C)NC(=O)[C@H](Cc2ccccc2Cl)N(C)C(=O)[C@H](CCc2ccc(C(F)(F)F)c(Cl)c2)NC(=O)CN(C)C(=O)[C@H](CC2CCCCC2)N(C)C(=O)CN(C)C(=O)CN(C)C1=O` [Compound 624] ([NMeA]I[Sar][Sar][NMeCha][Sar][hPhe(3-Cl-4-CF3)][NMePhe(2-Cl)]A[NMeV][NMeD]-Pyrrolidide; lactam N-11), 160 nM; with `CC[C@H](C)[C@@H]1NC(=O)[C@H](CC(C)C)N(C)C(=O)C[C@@H](C(=O)N2C3CCC2COC3)N(C)C(=O)[C@H]([C@@H](C)CC)N(C)C(=O)C2(CCCC2)NC(=O)[C@@H]2CCCN2C(=O)[C@H](CCc2ccc(C(F)(F)F)c(Cl)c2)NC(=O)CN(C)C(=O)[C@H](Cc2ccc(C(F)(F)F)cc2)N(C)C(=O)[C@@H]2CCN2C(=O)[C@H](C)N(C)C1=O` [Compound 545] ([NMeL]I[NMeA][Aze][NMePhe(4-CF3)][Sar][hPhe(3-Cl-4-CF3)]P[Ac5c][NMeI][NMeD]-{3Oxa8azabicyclo(3.2.1)octane}; lactam N-11), 1.1 nM. Turning to `CC[C@H](C)[C@@H]1NC(=O)[C@H](CC(C)C)N(C)C(=O)C[C@@H](C(=O)N2CCCC2)NC(=O)[C@H](C(C)C)N(C)C(=O)C2(CCCC2)NC(=O)[C@@H]2CCCN2C(=O)[C@H](CCc2ccc(C(F)(F)F)c(Cl)c2)NC(=O)CN(C)C(=O)[C@H](CC2CCCCC2)N(C)C(=O)CN(C)C(=O)CN(C)C1=O` [Compound 508] ([NMeL]I[Sar][Sar][NMeCha][Sar][hPhe(3-Cl-4-CF3)]P[Ac5c][NMeV]D-Pyrrolidide; lactam N-11), the half-inhibitory concentration (IC50) came out at 12 nM.
